{"source": "BindingDB's records for doi:10.1016/j.bmcl.2010.11.016", "about": "(Chosun University, 2011)", "key": {"[1]": {"test_system": "Influenza A H9N2 virus neuraminidase", "experiment": "Inhibition of Influenza A H9N2 virus neuraminidase activity after 2 hrs by spectrofluorometry"}, "[2]": {"test_system": "wild type H1N1 swine influenza virus neuraminidase", "experiment": "Inhibition of wild type H1N1 swine influenza virus neuraminidase activity expressed in HEK293T cells after 2 hrs by spectrofluorometry"}}, "note": "pIC50: −log10 of the molar value.", "data": [{"smiles": "O=C(C=Cc1ccc(O)cc1)c1ccc(O)cc1O", "values": [{"measurement": "pIC50", "setting": "[1]", "value": 4.42}, {"measurement": "pIC50", "setting": "[2]", "value": 4.87}]}]}
